The values below come from ChEMBL document CHEMBL1132392, “Novel derivatives of 3-(dipropylamino)chroman. Interactions with 5-HT1A and D2A receptors” (Bioorg Med Chem Lett, 1999).

pKi: −log10 of the molar value. The source made the active and inactive calls. The calls are words filed in the database; no cut-off is given here.

Usually pKi stands for −log10 of the Ki, conventionally taken in molar units.

Test [1] concerns the target T1, 5-hydroxytryptamine receptor 1A (Rattus norvegicus, UniProt P19327).
T1 sequence (P19327 whole entry): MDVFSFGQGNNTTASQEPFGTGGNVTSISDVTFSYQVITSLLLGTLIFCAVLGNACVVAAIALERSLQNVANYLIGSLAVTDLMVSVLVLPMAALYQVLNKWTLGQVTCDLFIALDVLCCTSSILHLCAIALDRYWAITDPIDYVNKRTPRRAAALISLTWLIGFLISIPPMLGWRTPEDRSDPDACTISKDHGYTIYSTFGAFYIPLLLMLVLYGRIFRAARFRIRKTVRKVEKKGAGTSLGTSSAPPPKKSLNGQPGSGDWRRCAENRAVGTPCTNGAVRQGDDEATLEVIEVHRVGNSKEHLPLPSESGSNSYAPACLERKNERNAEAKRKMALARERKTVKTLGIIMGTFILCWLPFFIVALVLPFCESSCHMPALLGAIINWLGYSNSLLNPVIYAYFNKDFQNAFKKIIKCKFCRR
The test can be described thus: In vitro ability to inhibit [3H]-8-OH-DPAT binding to 5-hydroxytryptamine 1A receptor in rat cortical membranes. Type of test: cell membranes.

Test [2] addresses T2, D(2) dopamine receptor (Homo sapiens, UniProt P14416). Description: In vitro ability to inhibit [3H]raclopride binding to cloned human D2A receptors expressed in mouse fibroblast (LtK-) cells. Type of test: cell-based.
The target of test [3] is T2, D(2) dopamine receptor. The test can be described thus: Agonist activity against human D2A receptor; Active. Type of test: functional.

T2 sequence (P14416 whole entry): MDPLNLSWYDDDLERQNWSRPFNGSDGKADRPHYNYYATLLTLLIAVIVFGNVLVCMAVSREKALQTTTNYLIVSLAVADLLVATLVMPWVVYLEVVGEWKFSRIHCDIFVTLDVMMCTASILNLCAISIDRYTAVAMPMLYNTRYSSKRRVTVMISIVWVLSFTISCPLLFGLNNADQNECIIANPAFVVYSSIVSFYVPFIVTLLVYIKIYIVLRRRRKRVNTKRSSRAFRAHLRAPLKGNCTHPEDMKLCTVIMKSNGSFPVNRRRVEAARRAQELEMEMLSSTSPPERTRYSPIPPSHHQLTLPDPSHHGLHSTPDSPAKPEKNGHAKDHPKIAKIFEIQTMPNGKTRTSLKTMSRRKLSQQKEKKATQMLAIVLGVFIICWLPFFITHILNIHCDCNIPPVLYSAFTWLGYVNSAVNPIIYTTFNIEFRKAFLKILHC

Take `CCCN(CCC)C1COc2c(cccc2-c2ccccc2)C1` (stereo not given): in test [1], the pKi is 8.96.

For the compound `CCCN(CCC)C1COc2c(cccc2-c2ccsc2)C1` (stereo not given), the pKi was 8.96 in test [1] and 6.40 at D(2) dopamine receptor [2].

Regarding `CCCN(CCC)C1COc2c(cccc2-c2ccc(C(F)(F)F)cc2)C1` (stereo not given), the pKi in test [1] was 7.20; at D(2) dopamine receptor [2], 6.12.

On to `CCCN(CCC)C1COc2c(Br)ccc(OC)c2C1` (stereo not given), for which, at D(2) dopamine receptor [3], the result was Active.

For the compound `CCCN(CCC)C1COc2c(cccc2C(=O)c2ccccc2)C1` (stereo not given), the values for the pKi (in test [1]; on D(2) dopamine receptor [2]) were 8.40 and under 6.00, respectively.

Turning to `CCCN(CCC)C1COc2c(cccc2-c2ccoc2)C1` (stereo not given), the pKi in test [1] was 8.24; at D(2) dopamine receptor [2], 7.32.

For the compound `CCCN(CCC)C1COc2c(cccc2C(=O)c2ccccc2OC)C1` (stereo not given), the pKi in test [1] is 7.22; on D(2) dopamine receptor [2], under 6.00.

`CCCN(CCC)C1COc2c(O)cccc2C1` (stereo not given): the figures for the pKi (in test [1]; on D(2) dopamine receptor [2]) were under 5.52 and 6.89, respectively.

As to `CCCN(CCC)C1COc2c(cccc2-c2ccc(OC)cc2)C1` (stereo not given), the pKi in test [1] was 8.89.

Take `CCCN(CCC)C1COc2c(cccc2C(=O)c2ccc(C(F)(F)F)cc2)C1` (stereo not given): the results for the pKi (in test [1]; at D(2) dopamine receptor [2]) were 7.33 and under 6.00, respectively.

Take `CCCN(CCC)C1COc2c(cccc2C(=O)c2ccoc2)C1` (stereo not given): the figures for the pKi (in test [1]; on D(2) dopamine receptor [2]) were 7.79 and 5.87, respectively.

Regarding `CCCN(CCC)C1COc2c(cccc2C(=O)c2ccc(C(C)=O)cc2)C1` (stereo not given), the pKi was 7.96 in test [1] and under 6.00 on D(2) dopamine receptor [2].

`CCCN(CCC)C1COc2c(SC)ccc(OC)c2C1` (stereo not given): the outcome on D(2) dopamine receptor [3] was Active.

As for `CCCN(CCC)C1COc2cccc(O)c2C1` (stereo not given), the pKi in test [1] was 7.08; on D(2) dopamine receptor [2] it was under 5.52.

On to `CCCN(CCC)C1COc2c(cccc2-c2ccccc2OC)C1` (stereo not given), for which the pKi in test [1] was 8.96; at D(2) dopamine receptor [2], under 6.00.

In the case of `CCCN(CCC)C1COc2c(cccc2C(=O)c2ccsc2)C1` (stereo not given), the pKi in test [1] is 8.14; on D(2) dopamine receptor [2] it was under 6.00.

Consider `CCCN(CCC)C1COc2c(cccc2C(=O)c2ccc(OC)cc2)C1` (stereo not given), for which the pKi in test [1] was 7.98; on D(2) dopamine receptor [2], under 6.00.
